One assay has as its system CD163. The assay is described as follows: Immunofluorescence of CD163 in prefrontal cortex brain tissue, acute hypobaric hypoxia model. Type of assay: in vivo, cynomolgus monkeys. The settings on record: FIGS. 5A and 5B. The text has this:
(§1) FIG. 5. […] A. Immunofluorescence imaging of CD163 and Iba-1 in the brain tissue of cynomolgus monkeys. B. Statistics of relative fluorescence intensity of CD163 and Iba-1. C. Correlation analysis of relative fluorescence intensity of CD163 and Iba-1. NN: Normobaric Normoxia group; HH: Hypobaric Hypoxia group; HH+Triol: Hypobaric Hypoxia with Triol administration group; HH+PROG: Hypobaric Hypoxia with progesterone administration group. One-way ANOVA analysis and Dunnutt's t test were used to perform statistical tests, and in the latter each group was compared with the HH group, ***, p<0.001.
(§2) The thickness of paraffin sections was 5 μm. For fresh paraffin sections, the sections were dried at 37° C. overnight and then dried at 55° C. for 30 minutes. The sections were quickly placed in xylene for dewaxing. After fully dewaxing with xylene for 10 min for 3 times, absolute ethanol-95% ethanol-90% ethanol-80% ethanol-70% ethanol-50% ethanol-ddH2O were successively used for gradient rehydration. After rehydration, the sections were placed in EDTA antigen repair solution for microwave high temperature repair. After the repair was completed, it was allowed naturally cool down to room temperature. […] NIS-Elements Analysis software was used to analyze the fluorescence intensity of confocal images, which was then normalized with the fluorescence intensity per unit area according to the built-in scale. […]

In the next assay the test system is Iba1. The assay is described as follows: Immunofluorescence of Iba1 in prefrontal cortex brain tissue, acute hypobaric hypoxia model. It is filed as in vivo, cynomolgus monkeys. The settings on record: FIG. 5.
From the text: as §1, §2

SMILES strings stand for the structures.

In the case of `CC(=O)[C@H]1CC[C@H]2[C@@H]3CCC4=CC(=O)CC[C@]4(C)[C@H]3CC[C@]12C` [progesterone, reference compound], in the assay on CD163, the “down-regulation of CD163 expression caused by acute hypobaric hypoxia” value is listed as “did not cancel the inhibition”. Besides, in the assay on Iba1, the Iba1 expression result is “increased”.

The values are drawn from patent publication US11911396B2, “Use of compound in preparation of drug for treating cerebral small vessel disease” (GUANGZHOU CELLPROTEK PHARMACEUTICAL CO., LTD, priority 2017, dated 2024).
